# Earlier results as cited in article PMC8894159, “Paltusotine, a novel oral once-daily nonpeptide SST2 receptor agonist, suppresses GH and IGF-1 in healthy volunteers” (Pituitary, 2022).
# Legend:
# IGF-1 = test system: IGF-1; design: method as in PMID 25664604; conditions: twice-daily oral preparation; patients previously controlled on depot preparations; cited from earlier work
# [1] = design: method as in PMID 25260838; conditions: patients taking pasireotide; cited from earlier work
Substance,patients maintaining IGF-1 control (IGF-1) [%],patients with hyperglycemia/diabetes [1]
octreotide,58,
pasireotide,,approximately 57%
